Measurements: patent publication US20180334436A1 (VIIV HEALTHCARE UK LIMITED, priority 2015, published 2018)

System: HIV
Assay: MT4 assay (anti-HIV activity)
Assay type: cell-based
Settings: Human immunodeficiency virus 1, 96 h, antiviral HIV activity in HTLV-1 transformed cell line MT-4; luciferase read 96 hours later; 10 point dose response
Protocol: Antiviral HIV activity and cytotoxicity values for compounds of the invention from Table 1 were measured in parallel in the HTLV-1 transformed cell line MT-4 based on the method previously described (Hazen et al., 2007, In vitro antiviral activity of the novel, tyrosyl-based human immunodeficiency virus (HIV) type 1 protease inhibitor brecanavir (GW640385) in combination with other antiretrovirals and against a panel of protease inhibitor-resistant HIV (Hazen et al., “In vitro antiviral activity of the novel, tyrosyl-based human immunodeficiency virus (HIV) type 1 protease inhibitor brecanavir (GW640385) in combination with other antiretrovirals and against a panel of protease inhibitor-resistant HIV”, Antimicrob. Agents Chemother. 2007, 51: 3147-3154; and Pauwels et al., “Sensitive and rapid assay on MT-4 cells for the detection of antiviral compounds against the AIDS virus”, J. of Virological Methods 1987, 16: 171-185).
Luciferase activity was measured 96 hours later by adding a cell titer glo (Promega, Madison, Wis.). Percent inhibition of cell protection data was plotted relative to no compound control. Under the same condition, cytotoxicity of the compounds was determined using cell titer Glo™ (Promega, Madison, Wis.). IC50s were determined from a 10 point dose response curve using 3-4-fold serial dilution for each compound, which spans a concentration range >1000 fold.
These values are plotted against the molar compound concentrations using the standard four parameter logistic equation:
y=((Vmax*x̂n)/(K̂n+x̂n))+Y2
Y2=minimum y n=slope factor
Vmax=maximum y x=compound concentration [M]

| Structure (SMILES) | IC50 [nM] |
| --- | --- |
| COc1ccc(C(=O)N2CCc3c(C)c([C@H](OC(C)(C)C)C(=O)O)c(-c4cc(F)c5c(c4C)CCCO5)c(C)c3C2)cc1C (atropisomer, axis not shown) [Example 97, (S)-2-(tert-butoxy)-2-((R)-7-(8-fluoro-5-methylchroman-6-yl)-2-(4-methoxy-3-methylbenzoyl)-5,8-dimethyl-1,2,3,4-tetrahydroisoquinolin-6-yl)acetic Acid] | 36 |
| Cc1c(-c2c(C)c3c(c(C)c2[C@H](OC(C)(C)C)C(=O)O)CC(=O)N(c2cccc(F)c2)C3)cc(F)c2c1CCCO2 (atropisomer, axis not shown) [Example 103, (S)-2-(tert-Butoxy)-2-((R)-7-(8-fluoro-5-methylchroman-6-yl)-2-(3-fluorophenyl)-5,8-dimethyl-3-oxo-1,2,3,4-tetrahydroisoquinolin-6-yl)acetic Acid] | 2 |
| Cc1c(-c2c(C)c3c(c(C)c2[C@H](OC(C)(C)C)C(=O)O)CC(=O)N(C2CCCCC2)C3)cc(F)c2c1CCCO2 (atropisomer, axis not shown) [Example 104, (S)-2-(tert-butoxy)-2-((R)-2-cyclohexyl-7-(8-fluoro-5-methylchroman-6-yl)-5,8-dimethyl-3-oxo-1,2,3,4-tetrahydroisoquinolin-6-yl)acetic Acid] | 2 |
| Cc1c(-c2c(C)c3c(c(C)c2[C@H](OC(C)(C)C)C(=O)O)CC(=O)N(C2CCC(C)(C)CC2)C3)cc(F)c2c1CCCO2 (atropisomer, axis not shown) [Example 105, (S)-2-(tert-butoxy)-2-((R)-2-(4,4-dimethylcyclohexyl)-7-(8-fluoro-5-methylchroman-6-yl)-5,8-dimethyl-3-oxo-1,2,3,4-tetrahydroisoquinolin-6-yl)acetic Acid] | 2 |
| Cc1c(-c2c(C)c3c(c(C)c2[C@H](OC(C)(C)C)C(=O)O)CC(=O)N(CC2CCCCC2)C3)cc(F)c2c1CCCO2 (atropisomer, axis not shown) [Example 106, (S)-2-(tert-butoxy)-2-((R)-2-(cyclohexylmethyl)-7-(8-fluoro-5-methylchroman-6-yl)-5,8-dimethyl-3-oxo-1,2,3,4-tetrahydroisoquinolin-6-yl)acetic Acid] | 3 |
| COc1c(F)cccc1N1Cc2c(C)c(-c3cc(F)c4c(c3C)CCCO4)c([C@H](OC(C)(C)C)C(=O)O)c(C)c2CC1=O (atropisomer, axis not shown) [Example 107, (S)-2-(tert-butoxy)-2-((R)-2-(3-fluoro-2-methoxyphenyl)-7-(8-fluoro-5-methylchroman-6-yl)-5,8-dimethyl-3-oxo-1,2,3,4-tetrahydroisoquinolin-6-yl)acetic Acid] | 2 |
| Cc1c(-c2c(C)c3c(c(C)c2[C@H](OC(C)(C)C)C(=O)O)CC(=O)N(C2CCOCC2)C3)cc(F)c2c1CCCO2 (atropisomer, axis not shown) [Example 108, (S)-2-(tert-butoxy)-2-((R)-7-(8-fluoro-5-methylchroman-6-yl)-5,8-dimethyl-3-oxo-2-(tetrahydro-2H-pyran-4-yl)-1,2,3,4-tetrahydroisoquinolin-6-yl)acetic Acid] | 13 |
| Cc1c(-c2c(C)c3c(c(C)c2[C@H](OC(C)(C)C)C(=O)O)C(C)(C)C(=O)N(C2CCCCC2)C3)cc(F)c2c1CCCO2 (atropisomer, axis not shown) [Example 109] | 4 |
| Cc1c(-c2c(C)c3c(c(C)c2[C@H](OC(C)(C)C)C(=O)O)CC(=O)N(CC(C)C)C3)cc(F)c2c1CCCO2 (atropisomer, axis not shown) [Example 110] | 3 |
| Cc1c(-c2c(C)c3c(c(C)c2[C@H](OC(C)(C)C)C(=O)O)CC(=O)N(C2CCN(C)CC2)C3)cc(F)c2c1CCCO2 (atropisomer, axis not shown) [Example 112, (S)-2-(tert-butoxy)-2-((R)-7-(8-fluoro-5-methylchroman-6-yl)-5,8-dimethyl-2-(1-methylpiperidin-4-yl)-3-oxo-1,2,3,4-tetrahydroisoquinolin-6-yl)acetic Acid] | 1040 |
| Cc1c(-c2c(C)c3c(c(C)c2[C@H](OC(C)(C)C)C(=O)O)CC(=O)N(CC2CCOCC2)C3)cc(F)c2c1CCCO2 (atropisomer, axis not shown) [Example 113] | 14 |
| Cc1c(-c2c(C)c3c(c(C)c2[C@H](OC(C)(C)C)C(=O)O)CC(=O)N(C2CCC(F)(F)CC2)C3)cc(F)c2c1CCCO2 (atropisomer, axis not shown) [Example 114, (S)-2-(tert-butoxy)-2-((R)-2-(4,4-difluorocyclohexyl)-7-(8-fluoro-5-methylchroman-6-yl)-5,8-dimethyl-3-oxo-1,2,3,4-tetrahydroisoquinolin-6-yl)acetic Acid] | 3 |
| Cc1c(-c2c(C)c3c(c(C)c2[C@H](OC(C)(C)C)C(=O)O)CC(=O)N(C2CCN(C(=O)OC(C)(C)C)CC2)C3)cc(F)c2c1CCCO2 (atropisomer, axis not shown) [Example 115] | 116 |
| Cc1c(-c2c(C)c3c(c(C)c2[C@H](OC(C)(C)C)C(=O)O)CC(=O)N(C2CCCCC2)C3)cc(Cl)c2c1CCCO2 (atropisomer, axis not shown) [Example 118] | 4 |
| Cc1c(-c2c(C)c3c(c(C)c2[C@H](OC(C)(C)C)C(=O)O)CC(=O)N(C2CCCCC2)C3)ccc2c1NCCO2 (atropisomer, axis not shown) [Example 119, (S)-2-(tert-butoxy)-2-((R)-2-cyclohexyl-5,8-dimethyl-7-(5-methyl-3,4-dihydro-2H-benzo[b][1,4]oxazin-6-yl)-3-oxo-1,2,3,4-tetrahydroisoquinolin-6-yl)acetic Acid] | 8 |
| Cc1c(-c2c(C)c3c(c(C)c2[C@H](OC(C)(C)C)C(=O)O)CC(=O)N(C2CCCCC2)C3)ccc2c1CCCO2 (atropisomer, axis not shown) [Example 120, (S)-2-(tert-butoxy)-2-((R)-2-cyclohexyl-5,8-dimethyl-7-(5-methylchroman-6-yl)-3-oxo-1,2,3,4-tetrahydroisoquinolin-6-yl)acetic Acid] | 2 |
| Cc1c(-c2c(C)c3c(c(C)c2[C@H](OC(C)(C)C)C(=O)O)CCN(C2CCCCC2)C3)cc(F)c2c1CCCO2 (atropisomer, axis not shown; (M)) [Example 67, (2S)(M)-2-(tert-butoxy)-2-(2-cyclohexyl-7-(8-fluoro-5-methylchroman-6-yl)-5,8-dimethyl-1,2,3,4-tetrahydroisoquinolin-6-yl)acetic Acid] | 5 |
| Cc1c(-c2c(C)c3c(c(C)c2[C@H](OC(C)(C)C)C(=O)O)CCN(S(=O)(=O)C2CCCCC2)C3)ccc2c1CCCO2 (atropisomer, axis not shown; (M)) [Example 83, (2S)(M)-2-(tert-butoxy)-2-(-2-(cyclohexylsulfonyl)-5,8-dimethyl-7-(5-methylchroman-6-yl)-1,2,3,4-tetrahydroisoquinolin-6-yl)acetic Acid] | 46 |
| Cc1c(-c2c(C)c3c(c(C)c2[C@H](OC(C)(C)C)C(=O)O)CCN(C2CCCCC2)C3)ccc2c1CCCO2 (atropisomer, axis not shown; (M)) [Example 84, (S)(M)-2-(tert-butoxy)-2-(2-cyclohexyl-5,8-dimethyl-7-(5-methylchroman-6-yl)-1,2,3,4-tetrahydroisoquinolin-6-yl)acetic Acid] | 5 |
| Cc1c(-c2c(C)c3c(c(C)c2[C@H](OC(C)(C)C)C(=O)O)CCN(S(=O)(=O)C2CCCCC2)C3)cc(Cl)c2c1CCCO2 (atropisomer, axis not shown; (M)) [Example 88, (S)(M)-2-(tert-butoxy)-2-(7-(8-chloro-5-methylchroman-6-yl)-2-(cyclohexylsulfonyl)-5,8-dimethyl-1,2,3,4-tetrahydroisoquinolin-6-yl)acetic Acid] | 36 |
| Cc1c(-c2c(C)c3c(c(C)c2[C@H](OC(C)(C)C)C(=O)O)CCN(C2CCCCC2)C3)cc(Cl)c2c1CCCO2 (atropisomer, axis not shown; (M)) [Example 89, (S)(M)-2-(tert-butoxy)-2-(7-(8-chloro-5-methylchroman-6-yl)-2-cyclohexyl-5,8-dimethyl-1,2,3,4-tetrahydroisoquinolin-6-yl)acetic Acid] | 12 |
| Cc1c(-c2c(C)c3c(c(C)c2[C@H](OC(C)(C)C)C(=O)O)CCN(S(=O)(=O)C2CCCCC2)C3)ccc2c1NCCO2 (atropisomer, axis not shown; (M)) [Example 95, (S)(M)-2-(tert-butoxy)-2-(2-(cyclohexylsulfonyl)-5,8-dimethyl-7-(5-methyl-3,4-dihydro-2H-benzo[b][1,4]oxazin-6-yl)-1,2,3,4-tetrahydroisoquinolin-6-yl)acetic Acid] | 9 |
| Cc1c(-c2c(C)c3c(c(C)c2[C@H](OC(C)(C)C)C(=O)O)CC(=O)N(Cc2ccccc2)C3)cc(F)c2c1CCCO2 (atropisomer, axis not shown; (M)) [Example 102, (S)(M)-2-(2-benzyl-7-(8-fluoro-5-methylchroman-6-yl)-5,8-dimethyl-3-oxo-1,2,3,4-tetrahydroisoquinolin-6-yl)-2-(tert-butoxy)acetic Acid] | 3 |
| Cc1ccc(-c2c(C)c3c(c(C)c2[C@H](OC(C)(C)C)C(=O)O)CCN(C2CCC[C@@H](C)C2)C3)cc1 (single isomer, unassigned) [Example 71] | 14 |
